According to patent US20240174634A1, “Aldehyde Dehydrogenase Inhibitors and Their Therapeutic Use” (priority 2020, published 2024):

What was measured:
ALDH1A1 = biological target: T1, ALDH1A1 (Homo sapiens, UniProt P00352); experiment: Selectivity biochemical assay, NAD(P)H-Glo Detection System
T1 construct: His-tag; made in house; host or cells: E. coli Rosetta (DE3)
T1 sequence (P00352 1-501): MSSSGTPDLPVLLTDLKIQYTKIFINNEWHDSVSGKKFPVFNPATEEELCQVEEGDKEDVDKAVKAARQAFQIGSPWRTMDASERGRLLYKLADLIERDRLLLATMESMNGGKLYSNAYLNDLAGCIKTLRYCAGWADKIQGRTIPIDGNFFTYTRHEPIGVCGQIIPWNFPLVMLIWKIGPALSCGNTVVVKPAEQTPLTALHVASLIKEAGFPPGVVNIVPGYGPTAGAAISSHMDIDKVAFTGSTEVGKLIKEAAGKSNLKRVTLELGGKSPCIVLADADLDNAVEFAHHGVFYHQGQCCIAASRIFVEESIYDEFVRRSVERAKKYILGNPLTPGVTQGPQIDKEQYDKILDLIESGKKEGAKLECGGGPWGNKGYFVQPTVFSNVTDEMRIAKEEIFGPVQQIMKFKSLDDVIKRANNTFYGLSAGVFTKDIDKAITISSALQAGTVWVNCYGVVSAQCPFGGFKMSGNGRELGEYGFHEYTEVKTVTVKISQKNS
Excerpt: (§1) Cloning: Open reading frames corresponding to the protein coding sequences of full length human ALDH1A1 (Uniprot ID P00352), ALDH1A2 (094788) and ALDH1A3 (P47895) were polymerase chain reaction (PCR) amplified from human cDNA and inserted into the multi-cloning sites of the commercially available (Novagen) E. coli expression vectors pET47b (ALDH1A1, EcoRI restriction site; ALDH1A2, BamHI and EcoRI sites) or pET28a (ALDH1A3, NdeI and BamHI sites), using standard molecular genetic techniques. Recombinant DNA products were sequence verified prior to use in expression studies.
(§2) Expression: Expression constructs were transformed into the E. coli strain Rosetta (DE3) (Merck) and individual colonies used to inoculate 10 mL lysogen broth (LB) medium supplemented with kanamycin and chloramphenicol at 50 μg/mL and 34 μg/mL, respectively. Cultures were grown to saturation overnight at 37° C., prior to being used to sub-inoculate fresh 1 L LB medium cultures (plus antibiotics, as before). 1 L cultures were grown at 37° C., 200 rpm, throughout the day until the optical density at 600 nm (OD600) reached ˜0.8, at which point growth temperature was reduced to 18° C. and 1 mM isopropyl β-d-1-thiogalacto pyranoside (IPTG) added to induce protein expression.
(§3) Cultures were left overnight (at least 16 h) under these conditions and the following day harvested by centrifugation (4000 G, 10 minutes). Culture supernatant was discarded and cell pellets stored at −80° C. until further processing.
(§4) Purification: Cell pellets were thawed on ice, re-suspended in Ni Affinity Buffer A (20 mM HEPES pH 7.5, 300 mM NaCl, 20 mM imidazole, 1 mM tris(2-carboxyethyl)phosphine (TCEP)) with protease inhibitors (cOmplete Ultra protease inhibitor, Roche), and lysed by sonication. Lysates were clarified by centrifugation at 18,000 G, 4° C., for 40 minutes, and loaded directly onto a pre-equilibrated (Buffer A) 5 mL HisTrap Fast Flow column (GE Healthcare) by way of an AKTA Fast Protein Liquid Chromatography (FPLC) system. The column was sequentially treated with 6 column volumes (CV) 100% Buffer A, 8 CV of 90% Buffer A:10% Buffer B (20 mM 4-(2-hydroxyethyl)-1-piperazineethanesulfonic acid (HEPES) pH 7.5, 300 mM NaCl, 500 mM imidazole, 1 mM TCEP) and finally a linear gradient from 10-70% Buffer B over 8 CV to elute recombinant His-tagged protein. Relevant fractions (as measured by 280 nm absorbance) collected during elution were pooled and subjected to further purification by size exclusion chromatography (Superdex 200 26/600, GE Healthcare, running buffer 20 mM 2-(carbamoylmethylamino)ethanesulfonic acid (ACES) pH 7.5, 1 mM TCEP). Relevant fractions from this step were pooled, aliquoted, and stored at −80° C. until required for compound profiling assays.
(§5) Materials: ALDH2 was purchased from Abnova. Tris(hydroxymethyl)aminomethane (Tris) was purchased from MP Biomedicals. TCEP, ethylenediaminetetraacetic acid (EDTA), propionaldehyde, DMSO and Tween-20 were purchased from Sigma. Nicotinamide adenine dinucleotide (NAD) was obtained from Abcam. The NAD(P)H-Glo™ Detection System was purchased from Promega. White, non-binding surface, 384 well plates were supplied by Corning (#3574).
(§6) Method: Inhibition of ALDH1A3 was assessed using the NAD(P)H-Glo™ Detection System (Cat. No. G9062) from Promega. This assay detects the production of NADH from NAD by ALDH1A3 via the coupled enzymatic conversion of a proluciferin reductase substrate to generate a luminescent signal. Inhibition of ALDH1A3 by small molecule inhibitors will result in reduction or abrogation of luminescence signal increase above background. Inhibition of ALDH1A1, ALDH1A2 and ALDH2 (selectivity assays) were assessed using the same assay.
(§7) Compounds were dosed into Corning 384 well assay plates using an Echo acoustic dispenser to give 10 point curves in a 3-fold dilution series. Compounds were dispensed from a 20 mM DMSO stock and initially screened at a top concentration of 20 μM (ALDH1A3) or 250 μM (ALDH1A1, ALDH1A2 & ALDH2). […]

ALDH1A2 = biological target: T2, ALDH1A2 (Homo sapiens, UniProt O94788); experiment: as above
T2 construct: His-tag; made in house; host or cells: E. coli Rosetta (DE3)
T2 sequence (O94788 1-518): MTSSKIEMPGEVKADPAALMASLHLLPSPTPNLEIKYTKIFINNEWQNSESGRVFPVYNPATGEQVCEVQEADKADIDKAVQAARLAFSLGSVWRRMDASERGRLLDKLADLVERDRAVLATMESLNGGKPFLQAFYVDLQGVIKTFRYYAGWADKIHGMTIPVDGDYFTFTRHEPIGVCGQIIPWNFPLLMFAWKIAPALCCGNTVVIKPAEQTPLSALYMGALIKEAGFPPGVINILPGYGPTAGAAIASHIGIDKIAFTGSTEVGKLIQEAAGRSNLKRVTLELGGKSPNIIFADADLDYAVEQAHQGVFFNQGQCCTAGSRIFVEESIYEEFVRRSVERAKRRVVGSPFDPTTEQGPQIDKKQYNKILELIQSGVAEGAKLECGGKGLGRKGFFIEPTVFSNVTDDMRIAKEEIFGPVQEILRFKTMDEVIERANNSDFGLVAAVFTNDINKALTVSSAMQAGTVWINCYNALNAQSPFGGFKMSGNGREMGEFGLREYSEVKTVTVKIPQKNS
Excerpt: as §1, §2, §3, §4, §5, §6, §7

SMILES | IC50 (ALDH1A1) [µM] | IC50 (ALDH1A2) [µM]
O=C1CCc2cc(NC(=O)c3ncsc3-c3cccc(F)c3)ccc2N1 [ALDHI-1014, 5-(3-fluorophenyl)-N-(2-oxo-3,4-dihydro-1H-quinolin-6-yl)thiazole-4-carboxamide] | ≥ 100 | 10 to 100
O=C1COc2cc(NC(=O)c3scnc3-c3cccc(F)c3)ccc2N1 [ALDHI-1016, 4-(3-fluorophenyl)-N-(3-oxo-4H-1,4-benzoxazin-7-yl)thiazole-5-carboxamide] | ≥ 100 | 1 to 10
O=C1CCc2cc(NC(=O)c3scnc3-c3ccc(F)cc3)ccc2N1 [ALDHI-1017, 4-(4-fluorophenyl)-N-(2-oxo-1,2,3,4-tetrahydroquinolin-6-yl)thiazole-5-carboxamide] | ≥ 100 | 1 to 10
O=C1CCc2cc(NC(=O)c3ocnc3-c3cccc(F)c3)ccc2N1 [ALDHI-1019, 4-(3-fluorophenyl)-N-(2-oxo-3,4-dihydro-1H-quinolin-6-yl)oxazole-5-carboxamide] | ≥ 100 | ≥ 100
O=C1CCc2cc(NC(=O)c3scnc3-c3ccccc3F)ccc2N1 [ALDHI-1021, 4-(2-fluorophenyl)-N-(2-oxo-3,4-dihydro-1H-quinolin-6-yl)thiazole-5-carboxamide] | ≥ 100 | 1 to 10
O=C1CCc2cc(NC(=O)c3sccc3-c3cccc(F)c3)ccc2N1 [ALDHI-1022, 3-(3-fluorophenyl)-N-(2-oxo-3,4-dihydro-1H-quinolin-6-yl)thiophene-2-carboxamide] | 10 to 100 | 1 to 10
O=C1CCc2cc(NC(=O)c3scnc3-c3cccs3)ccc2N1 [ALDHI-1023, N-(2-oxo-3,4-dihydro-1H-quinolin-6-yl)-4-(2-thienyl)thiazole-5-carboxamide] | ≥ 100 | 0.1 to 1
O=C1CCc2cc(OCCN3CCCC3c3cccc(F)c3)ccc2N1 (stereo not drawn) [ALDHI-2001, 6-[2-[2-(3-fluorophenyl)pyrrolidin-1-yl]ethoxy]-3,4-dihydro-1H-quinolin-2-one] | ≥ 100 | 0.1 to 1
O=C1CCc2cc(OCCN3CCCC3c3ccccc3F)ccc2N1 (stereo not drawn) [ALDHI-2002, 6-[2-[2-(2-fluorophenyl)pyrrolidin-1-yl]ethoxy]-3,4-dihydro-1H-quinolin-2-one] | ≥ 100 | 10 to 100
O=C1CCc2cc(OCCN3CCCC3c3ccc(F)cc3)ccc2N1 (stereo not drawn) [ALDHI-2003, 6-[2-[2-(4-fluorophenyl)pyrrolidin-1-yl]ethoxy]-3,4-dihydro-1H-quinolin-2-one] | ≥ 100 | 1 to 10
O=C1CCc2cc(OCCN3CCCC3c3ccncc3)ccc2N1 (stereo not drawn) [ALDHI-2004, 6-[2-[2-(4-pyridyl)pyrrolidin-1-yl]ethoxy]-3,4-dihydro-1H-quinolin-2-one] | ≥ 100 | 10 to 100
O=C1CCc2cc(OCCN3CCCC3c3cccnc3)ccc2N1 (stereo not drawn) [ALDHI-2005, 6-[2-[2-(3-pyridyl)pyrrolidin-1-yl]ethoxy]-3,4-dihydro-1H-quinolin-2-one] | ≥ 100 | 10 to 100
O=C1CCc2cc(OCCN3CCCC3c3ccccn3)ccc2N1 (stereo not drawn) [ALDHI-2006, 6-[2-[2-(2-pyridyl)pyrrolidin-1-yl]ethoxy]-3,4-dihydro-1H-quinolin-2-one] | ≥ 100 | 1 to 10
O=C1CCc2cc(OCCN3CCC[C@@H]3c3cccc(F)c3)ccc2N1 [ALDHI-2007, 6-[2-[(2R)-2-(3-fluorophenyl)pyrrolidin-1-yl]ethoxy]-3,4-dihydro-1H-quinolin-2-one] | ≥ 100 | 0.1 to 1
O=C1CSc2cc(OCCN3CCCC3c3cccc(F)c3)ccc2N1 (stereo not drawn) [ALDHI-2008, 7-[2-[2-(3-fluorophenyl)pyrrolidin-1-yl]ethoxy]-4H-1,4-benzothiazin-3-one] | ≥ 100 | 10 to 100
O=C1COc2cc(OCCN3CCCC3c3cccc(F)c3)ccc2N1 (stereo not drawn) [ALDHI-2009, 7-[2-[2-(3-fluorophenyl)pyrrolidin-1-yl]ethoxy]-4H-1,4-benzoxazin-3-one] | ≥ 100 | 1 to 10
Cc1ccc(C2CCCN2CCOc2ccc3c(c2)CCC(=O)N3)cc1 (stereo not drawn) [ALDHI-2010, 6-[2-[2-(p-tolyl)pyrrolidin-1-yl]ethoxy]-3,4-dihydro-1H-quinolin-2-one] | ≥ 100 | ≥ 100
Cc1cccc(C2CCCN2CCOc2ccc3c(c2)CCC(=O)N3)c1 (stereo not drawn) [ALDHI-2011, 6-[2-[2-(m-tolyl)pyrrolidin-1-yl]ethoxy]-3,4-dihydro-1H-quinolin-2-one] | ≥ 100 | 10 to 100
Cc1ccccc1C1CCCN1CCOc1ccc2c(c1)CCC(=O)N2 (stereo not drawn) [ALDHI-2012, 6-[2-[2-(o-tolyl)pyrrolidin-1-yl]ethoxy]-3,4-dihydro-1H-quinolin-2-one] | ≥ 100 | ≥ 100
O=C1CCc2cc(OCCN3CCCC3c3cccs3)ccc2N1 (stereo not drawn) [ALDHI-2013, 6-[2-[2-(2-thienyl)pyrrolidin-1-yl]ethoxy]-3,4-dihydro-1H-quinolin-2-one] | ≥ 100 | 1 to 10
O=C1CCc2cc(OCCN3CCCC3c3ccsc3)ccc2N1 (stereo not drawn) [ALDHI-2014, 6-[2-[2-(3-thienyl)pyrrolidin-1-yl]ethoxy]-3,4-dihydro-1H-quinolin-2-one] | ≥ 100 | ≥ 100
CCn1cc(C2CCCN2CCOc2ccc3c(c2)CCC(=O)N3)cn1 (stereo not drawn) [ALDHI-2016, 6-[2-[2-(1-ethylpyrazol-4-yl)pyrrolidin-1-yl]ethoxy]-3,4-dihydro-1H-quinolin-2-one] | ≥ 100 | ≥ 100
O=C1CCc2cc(OCCN3CCC[C@H]3c3cccc(F)c3)ccc2N1 [ALDHI-2018, 6-[2-[(2S)-2-(3-fluorophenyl)pyrrolidin-1-yl]ethoxy]-3,4-dihydro-1H-quinolin-2-one] | ≥ 100 | 0.1 to 1
O=C1CCc2cc(OCCN3CCCC3c3ccccc3)ccc2N1 (stereo not drawn) [ALDHI-2019, 6-[2-(2-phenylpyrrolidin-1-yl)ethoxy]-3,4-dihydro-1H-quinolin-2-one] | ≥ 100 | 0.1 to 1
